From BigSolDB 2.1

O=P1(Oc2ccccc2)OCC2(CO1)COP(=O)(Oc1ccccc1)OC2 (centres undefined)
Settings	solubility (mole fraction)
in 1,4-dioxane, 293.26 K	0.00132
in 1,4-dioxane, 298.45 K	0.00152
in 1,4-dioxane, 303.26 K	0.00181
in 1,4-dioxane, 308.67 K	0.00214
in 1,4-dioxane, 313.24 K	0.00253
in 1,4-dioxane, 318.36 K	0.00294
in 1,4-dioxane, 323.35 K	0.00335
in 1,4-dioxane, 328.23 K	0.00383
in 1,4-dioxane, 333.36 K	0.00438
in 1,4-dioxane, 338.25 K	0.00499
in 2-butanone, 293.15 K	0.00399
in 2-butanone, 298.16 K	0.00446
in 2-butanone, 303.17 K	0.00506
in 2-butanone, 308.18 K	0.00575
in 2-butanone, 313.16 K	0.00638
in 2-butanone, 318.19 K	0.00733
in 2-butanone, 323.15 K	0.00809
in 2-ethoxyethanol, 293.24 K	0.00325
in 2-ethoxyethanol, 298.24 K	0.00392
in 2-ethoxyethanol, 303.16 K	0.00455
in 2-ethoxyethanol, 308.17 K	0.00543
in 2-ethoxyethanol, 313.23 K	0.00637
in 2-ethoxyethanol, 318.16 K	0.00756
in 2-ethoxyethanol, 323.18 K	0.00897
in 2-ethoxyethanol, 328.15 K	0.0104
in 2-ethoxyethanol, 333.16 K	0.0122
in 2-ethoxyethanol, 338.17 K	0.014
in 2-ethoxyethanol, 343.16 K	0.0161
in 2-ethoxyethanol, 348.17 K	0.0185
in 2-ethoxyethanol, 353.16 K	0.0215
in 2-ethoxyethanol, 358.16 K	0.0244
in 2-ethoxyethanol, 363.17 K	0.0277
in 2-ethoxyethanol, 368.16 K	0.0319
in THF, 293.53 K	0.00524
in THF, 298.16 K	0.00615
in THF, 303.49 K	0.00727
in THF, 308.25 K	0.00845
in THF, 313.35 K	0.00996
in THF, 318.31 K	0.0115
in THF, 323.35 K	0.0133
in THF, 328.46 K	0.0153
in acetone, 293.17 K	0.00237
in acetone, 298.16 K	0.00275
in acetone, 303.26 K	0.00322
in acetone, 308.57 K	0.00371
in acetone, 313.24 K	0.00421
in acetone, 318.07 K	0.00479
in acetone, 323.25 K	0.00542
in acetone, 328.36 K	0.00622
in acetonitrile, 293.31 K	0.00156
in acetonitrile, 298.17 K	0.00187
in acetonitrile, 303.26 K	0.00223
in acetonitrile, 308.57 K	0.00273
in acetonitrile, 313.35 K	0.00318
in acetonitrile, 318.24 K	0.00375
in acetonitrile, 323.36 K	0.00438
in acetonitrile, 328.27 K	0.00522
in acetonitrile, 333.35 K	0.00614
in acetonitrile, 338.56 K	0.00738
in acetonitrile, 343.44 K	0.00841
in benzene, 293.17 K	0.00119
in benzene, 298.16 K	0.00121
in benzene, 304.76 K	0.00124
in benzene, 308.37 K	0.00127
in benzene, 313.55 K	0.00129
in benzene, 318.26 K	0.00133
in benzene, 323.24 K	0.00136
in benzene, 328.43 K	0.00138
in benzene, 333.46 K	0.00141
in benzene, 338.34 K	0.00143
in benzene, 343.26 K	0.00145
in benzene, 348.35 K	0.00147
in chloroform, 293.25 K	0.00224
in chloroform, 298.17 K	0.00319
in chloroform, 303.25 K	0.00436
in chloroform, 308.56 K	0.00611
in chloroform, 313.25 K	0.00806
in chloroform, 318.25 K	0.0106
in chloroform, 323.04 K	0.0139
in chloroform, 328.35 K	0.0188
in chloroform, 333.13 K	0.0234
in dichloromethane, 293.16 K	0.00103
in dichloromethane, 299.22 K	0.00127
in dichloromethane, 303.86 K	0.00146
in dichloromethane, 307.6 K	0.00167
in diethyl ether, 291.95 K	0.00179
in diethyl ether, 295.37 K	0.00204
in diethyl ether, 299.26 K	0.00234
in diethyl ether, 303.55 K	0.00275
in ethanol, 298.16 K	0.00136
in ethanol, 303.15 K	0.00157
in ethanol, 308.16 K	0.00187
in ethanol, 313.14 K	0.00218
in ethanol, 318.16 K	0.00246
in ethanol, 323.16 K	0.00288
in ethanol, 328.17 K	0.00329
in ethanol, 333.16 K	0.00383
in ethanol, 338.16 K	0.00426
in ethanol, 343.15 K	0.00485
in ethyl acetate, 293.25 K	0.00107
in ethyl acetate, 298.46 K	0.00132
in ethyl acetate, 303.27 K	0.00158
in ethyl acetate, 308.66 K	0.00193
in ethyl acetate, 313.27 K	0.0023
in ethyl acetate, 318.35 K	0.00281
in ethyl acetate, 323.35 K	0.00334
in ethyl acetate, 328.26 K	0.00392
in ethyl acetate, 333.37 K	0.00459
in ethyl acetate, 338.26 K	0.00539
in methanol, 293.24 K	0.00271
in methanol, 298.24 K	0.00298
in methanol, 303.16 K	0.00329
in methanol, 308.17 K	0.00365
in methanol, 313.23 K	0.00401
in methanol, 318.16 K	0.00443
in methanol, 323.15 K	0.00483
in pyridine, 293.43 K	0.00813
in pyridine, 298.35 K	0.00885
in pyridine, 303.51 K	0.00964
in pyridine, 308.35 K	0.0104
in pyridine, 313.35 K	0.0114
in pyridine, 318.31 K	0.0123
in pyridine, 323.35 K	0.0132
in pyridine, 328.45 K	0.0141
in toluene, 298.17 K	0.00115
in toluene, 303.25 K	0.00143
in toluene, 308.56 K	0.00185
in toluene, 313.34 K	0.00229
in toluene, 318.26 K	0.00285
in toluene, 323.37 K	0.00352
in toluene, 328.25 K	0.00424
in toluene, 333.34 K	0.00536
in toluene, 338.56 K	0.00646
in toluene, 343.45 K	0.00781
in water, 293.18 K	0.00014
in water, 298.77 K	0.0002
in water, 308.37 K	0.0003
in water, 313.56 K	0.00037
in water, 318.25 K	0.0005
in water, 323.24 K	0.00064
in water, 328.43 K	0.00086
in water, 333.45 K	0.00116
in water, 338.36 K	0.00148
in water, 343.26 K	0.00188
in water, 348.35 K	0.00241
in water, 353.24 K	0.00295
in water, 358.25 K	0.00371
in water, 363.36 K	0.00477
in water, 368.25 K	0.00591
